Assay results reported in PubChem BioAssay (NCI).
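Cells were grown in 96-well plates and exposed to each compound for 48 hours at five concentrations; endpoints were interpolated linearly between bracketing concentrations, or set to the highest concentration if not reached. GI50: concentration for 50% inhibition of growth. Definition used: TGI = concentration required for complete inhibition of growth.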

Experiments:
Assay in all cases: growth of human tumour cells (NCI), 48 h
786-0 renal = test system: 786-0 renal
A498 renal = test system: A498 renal
M14 melanoma = test system: M14 melanoma
MDA-MB-435 = test system: MDA-MB-435
NCI-H460 lung = test system: NCI-H460 lung
OVCAR-8 ovarian = test system: OVCAR-8 ovarian
SF-268 CNS = test system: SF-268 CNS
SF-295 CNS = test system: SF-295 CNS
SNB-75 CNS = test system: SNB-75 CNS
UO-31 renal = test system: UO-31 renal

Row | Compound | GI50 (786-0 renal) [µM] | TGI (786-0 renal) [µM] | GI50 (A498 renal) [µM] | TGI (A498 renal) [µM] | GI50 (M14 melanoma) [µM] | TGI (M14 melanoma) [µM] | GI50 (MDA-MB-435) [µM] | TGI (MDA-MB-435) [µM] | GI50 (NCI-H460 lung) [µM] | TGI (NCI-H460 lung) [µM] | GI50 (OVCAR-8 ovarian) [µM] | TGI (OVCAR-8 ovarian) [µM] | GI50 (SF-268 CNS) [µM] | TGI (SF-268 CNS) [µM] | GI50 (SF-295 CNS) [µM] | TGI (SF-295 CNS) [µM] | GI50 (SNB-75 CNS) [µM] | TGI (SNB-75 CNS) [µM] | TGI (UO-31 renal) [µM] | GI50 (UO-31 renal) [µM]
1 | CCN(CC)CCOc1ccc(/C=C2\CC3C4CC=C5C[C@@H](O)CC[C@]5(C)C4CC[C@]3(C)C2=O)cc1OC (some centres not stated) | 1.92 | 3.66 | 2.84 | 9.84 | 2.06 | 4.34 | 1.94 | 3.74 | 5.42 | > 53 | 1.92 | 3.74 | 7.39 | > 57.3 | 2.6 | 10.3 | 15.6 | 34.8 | > 100 | –
2 | CCN(CC)c1nc(-c2ccc(Cl)cc2Cl)nc2ccccc12 | 22.2 | 61.9 | 0.702 | 7.63 | 18 | 37.9 | 18.7 | 48.3 | 23.9 | > 79.5 | 31.9 | > 100 | 23.1 | > 68.8 | 22.8 | 62.4 | 43.9 | > 100 | > 90.5 | 24.9
3 | Nc1nc(N)c(N=Nc2ccc([As](=O)(O)O)cc2)c(=O)[nH]1 | – | > 100 | – | > 100 | – | > 100 | – | > 100 | – | > 100 | – | > 100 | – | > 100 | – | > 100 | – | > 100 | > 100 | –
4 | Cc1csc(Nc2nc(-c3cccc(Br)c3)nc(C(Cl)(Cl)Cl)n2)n1 | 7.75 | > 100 | 1.06 | 2.47 | > 100 | > 100 | 6.07 | > 100 | 1.16 | 3.53 | > 29.2 | > 100 | 4.65 | > 100 | 2.17 | > 100 | 1.36 | > 27.9 | > 100 | 2.51
5 | Ic1ccc(-n2nnnc2-c2cnoc2-c2ccccc2)cc1 | 60.2 | > 100 | 22 | 74.4 | 37.6 | > 67.3 | 24.5 | > 57.5 | 35 | > 100 | > 50.4 | > 77 | 54 | > 100 | 38.2 | > 77.8 | > 56.8 | > 100 | > 100 | > 50.5
6 | CS(=O)(=O)CCCn1c(=O)c(Oc2ccc(F)cc2F)cc2cnc(NC3CCOCC3)nc21 | > 25 | > 25 | > 25 | > 25 | > 25 | > 25 | > 25 | > 25 | > 25 | > 25 | > 25 | > 25 | > 25 | > 25 | > 25 | > 25 | > 25 | > 25 | > 25 | > 25
7 | CC(=C\c1ccccc1)/C=C(\C#N)C(N)=O | – | > 10 | – | > 10 | – | > 10 | – | > 10 | – | > 10 | – | > 10 | – | > 10 | – | > 10 | – | > 10 | > 10 | –
8 | COc1cc(C2c3cc4c(cc3C(O)C(CO)C2CO)OCO4)cc(OC)c1OC (configuration not stated) | 6.59 | > 100 | 0.321 | – | 0.706 | > 100 | 0.197 | 0.549 | 0.463 | > 26.4 | 2.76 | > 100 | 3.32 | > 100 | 0.219 | 0.468 | 0.594 | > 100 | > 100 | –
9 | COc1c(OC)c(OC)c(C(=O)/C=C/c2ccccc2)c(OC)c1OC | – | 21.6 | – | 17.5 | – | 36.7 | – | 19.7 | – | 21.9 | – | 34 | – | 22.1 | – | 29.9 | – | 23.1 | 22.2 | –
10 | O=c1[nH]c(=O)n(C2CC(O)C(CO)O2)cc1CO (configuration not stated) | 5.33 | > 100 | > 100 | > 100 | > 100 | > 100 | > 100 | > 100 | 37.1 | > 100 | > 100 | > 100 | > 100 | > 100 | > 100 | > 100 | > 100 | > 100 | > 100 | > 100
11 | Cc1ccc(Cl)cc1Nc1nc(C(F)(F)F)ccc1C(=O)N1CCN(c2cccc(Cl)c2)CC1 | > 100 | > 100 | 65.6 | > 100 | > 100 | > 100 | > 100 | > 100 | 90.1 | > 100 | > 100 | > 100 | > 100 | > 100 | > 100 | > 100 | 73.8 | > 100 | > 100 | 24.8
12 | Cc1nc2cnc(N)c(C#Cc3cncc(C(=O)Nc4ccc(CN5CCN(C)CC5)c(C(F)(F)F)c4)c3)c2nc1C | 2.58 | 14.8 | 0.18 | 1.17 | 0.0903 | 0.339 | 0.14 | 6 | 0.478 | 11.7 | 1.43 | 13.8 | 0.64 | 10.3 | 3.02 | 19.6 | 1.35 | 3.39 | 5.67 | 1.28
